Laboratory results reported in the supplement of paper PMC9663587.

What was measured:
YKL-5-124 = compound: C=CC(=O)Nc1ccc(C(=O)Nc2[nH]nc3c2CN(C(=O)N[C@H](CN(C)C)c2ccccc2)C3(C)C)cc1 [YKL-5-124]; test: increase in dead-cell fraction, 72 h; higher = more death;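 further: breast cancer cell lines in 384-well plates, stained with Hoechst plus LIVE/DEAD far red dye and imaged, cells above an LDR intensity threshold counted dead, Hoechst-negative corpses included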
BSJ-03-123 = compound: CC(=O)c1c(C)c2cnc(Nc3ccc(N4CCN(CCOCCOCCOCCNC(=O)COc5cccc6c5C(=O)N(C5CCC(=O)NC5=O)C6=O)CC4)cn3)nc2n(C2CCCC2)c1=O [BSJ-03-123]; test: as above
[1] = compound: CC(=O)c1c(C)c2cnc(Nc3ccc(N4CCNCC4)cn3)nc2n(C2CCCC2)c1=O; test: as above
[2] = compound: CCN1CCN(Cc2ccc(Nc3ncc(F)c(-c4cc(F)c5nc(C)n(C(C)C)c5c4)n3)nc2)CC1; test: as above
Neratinib/HKI272 [3] = compound: T1, CCOc1cc2ncc(C#N)c(Nc3ccc(OCc4ccccn4)c(Cl)c3)c2cc1NC(=O)/C=C/CN(C)C [Neratinib/HKI272]; test: as above
[4] = compound: CCc1cnn2c(NCc3ccc[n+]([O-])c3)cc(N3CCCC[C@H]3CCO)nc12; test: as above
LEE011/Ribociclib = compound: CN(C)C(=O)c1cc2cnc(Nc3ccc(N4CCNCC4)cn3)nc2n1C1CCCC1 [LEE011/Ribociclib]; test: as above
THZ531 = compound: CN(C)C/C=C/C(=O)Nc1ccc(C(=O)N2CCC[C@@H](Nc3ncc(Cl)c(-c4c[nH]c5ccccc45)n3)C2)cc1 [THZ531]; test: as above
THZ1 = compound: CN(C)C/C=C/C(=O)Nc1ccc(C(=O)Nc2cccc(Nc3ncc(Cl)c(-c4c[nH]c5ccccc45)n3)c2)cc1 [THZ1]; test: as above
Flavopiridol [5] = compound: T2, CN1CC[C@H](c2c(O)cc(O)c3c(=O)cc(-c4ccccc4Cl)oc23)[C@H](O)C1 [Flavopiridol]; test: as above
Neratinib/HKI272 [6] = compound: T1, Neratinib/HKI272; test: GR value, 72 h; higher = faster growth (1 = untreated, <0 = killing);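 further: breast cancer and non-malignant breast epithelial lines, nine half-log doses, viable cells counted by Hoechst and LIVE/DEAD dye imaging versus time-zero plates and DMSO controls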
Flavopiridol [7] = compound: T2, Flavopiridol; test: as above

SUM185PE
increase in dead-cell fraction (YKL-5-124; 0.001 µM): 0.0052 | increase in dead-cell fraction (YKL-5-124; 0.003162 µM): 0.0479 | increase in dead-cell fraction (YKL-5-124; 0.01 µM): 0.037 | increase in dead-cell fraction (YKL-5-124; 0.03162 µM): 0.0467 | increase in dead-cell fraction (YKL-5-124; 0.1 µM): 0.0495 | increase in dead-cell fraction (YKL-5-124; 0.3162 µM): 0.0156 | increase in dead-cell fraction (YKL-5-124; 1 µM): 0.067 | increase in dead-cell fraction (YKL-5-124; 3.162 µM): 0.121 | increase in dead-cell fraction (YKL-5-124; 10 µM): 0.148 | increase in dead-cell fraction (BSJ-03-123; 0.001 µM): -0.0024 | increase in dead-cell fraction (BSJ-03-123; 0.003162 µM): -0.0357 | increase in dead-cell fraction (BSJ-03-123; 0.01 µM): 0.0044 | increase in dead-cell fraction (BSJ-03-123; 0.03162 µM): 0.0319 | increase in dead-cell fraction (BSJ-03-123; 0.1 µM): 0.0144 | increase in dead-cell fraction (BSJ-03-123; 0.3162 µM): -0.0016 | increase in dead-cell fraction (BSJ-03-123; 1 µM): 0.0213 | increase in dead-cell fraction (BSJ-03-123; 3.162 µM): 0.0264 | increase in dead-cell fraction (BSJ-03-123; 10 µM): 0.0146 | increase in dead-cell fraction ([1]; 0.0003162 µM): 0.0082 | increase in dead-cell fraction ([1]; 0.001 µM): 0.0038 | increase in dead-cell fraction ([1]; 0.003162 µM): 0.0174 | increase in dead-cell fraction ([1]; 0.01 µM): -0.0044 | increase in dead-cell fraction ([1]; 0.03162 µM): -0.0035 | increase in dead-cell fraction ([1]; 0.1 µM): 0.0063 | increase in dead-cell fraction ([1]; 0.3162 µM): 0.02 | increase in dead-cell fraction ([1]; 1 µM): 0.0086 | increase in dead-cell fraction ([1]; 3.162 µM): 0.0015 | increase in dead-cell fraction ([2]; 0.001 µM): -0.0051 | increase in dead-cell fraction ([2]; 0.003162 µM): 0.0054 | increase in dead-cell fraction ([2]; 0.01 µM): 0.0159 | increase in dead-cell fraction ([2]; 0.03162 µM): 0.0271 | increase in dead-cell fraction ([2]; 0.1 µM): 0.0298 | increase in dead-cell fraction ([2]; 0.3162 µM): 0.0411 | increase in dead-cell fraction ([2]; 1 µM): 0.0307 | increase in dead-cell fraction ([2]; 3.162 µM): 0.0469 | increase in dead-cell fraction ([2]; 10 µM): 0.04 | increase in dead-cell fraction (Neratinib/HKI272 [3]; 0.0003162 µM): 0.0036 | increase in dead-cell fraction (Neratinib/HKI272 [3]; 0.001 µM): -0.0035 | increase in dead-cell fraction (Neratinib/HKI272 [3]; 0.003162 µM): 0.0085 | increase in dead-cell fraction (Neratinib/HKI272 [3]; 0.01 µM): 0.0152 | increase in dead-cell fraction (Neratinib/HKI272 [3]; 0.03162 µM): 0.0297 | increase in dead-cell fraction (Neratinib/HKI272 [3]; 0.1 µM): 0.0255 | increase in dead-cell fraction (Neratinib/HKI272 [3]; 0.3162 µM): 0.0574 | increase in dead-cell fraction (Neratinib/HKI272 [3]; 1 µM): 0.068 | increase in dead-cell fraction (Neratinib/HKI272 [3]; 3.162 µM): 0.0933 | increase in dead-cell fraction ([4]; 0.0001 µM): -0.003 | increase in dead-cell fraction ([4]; 0.0003162 µM): 0.0089 | increase in dead-cell fraction ([4]; 0.001 µM): -0.0107 | increase in dead-cell fraction ([4]; 0.003162 µM): 0.0052 | increase in dead-cell fraction ([4]; 0.01 µM): 0.0137 | increase in dead-cell fraction ([4]; 0.03162 µM): 0.0687 | increase in dead-cell fraction ([4]; 0.1 µM): 0.0528 | increase in dead-cell fraction ([4]; 0.3162 µM): 0.0636 | increase in dead-cell fraction ([4]; 1 µM): 0.0458 | increase in dead-cell fraction (LEE011/Ribociclib; 0.001 µM): -0.0065 | increase in dead-cell fraction (LEE011/Ribociclib; 0.003162 µM): -0.0157 | increase in dead-cell fraction (LEE011/Ribociclib; 0.01 µM): -0.0081 | increase in dead-cell fraction (LEE011/Ribociclib; 0.03162 µM): -0.0009 | increase in dead-cell fraction (LEE011/Ribociclib; 0.1 µM): -0.0246 | increase in dead-cell fraction (LEE011/Ribociclib; 0.3162 µM): -0.0198 | increase in dead-cell fraction (LEE011/Ribociclib; 1 µM): -0.0191 | increase in dead-cell fraction (LEE011/Ribociclib; 3.162 µM): -0.0045 | increase in dead-cell fraction (LEE011/Ribociclib; 10 µM): 0.0009 | increase in dead-cell fraction (THZ531; 0.0001 µM): 0.0141 | increase in dead-cell fraction (THZ531; 0.0003162 µM): 0.0051 | increase in dead-cell fraction (THZ531; 0.001 µM): -0.0125 | increase in dead-cell fraction (THZ531; 0.003162 µM): -0.0076 | increase in dead-cell fraction (THZ531; 0.01 µM): -0.0143 | increase in dead-cell fraction (THZ531; 0.03162 µM): -0.0254 | increase in dead-cell fraction (THZ531; 0.1 µM): 0.0083 | increase in dead-cell fraction (THZ531; 0.3162 µM): 0.278 | increase in dead-cell fraction (THZ531; 1 µM): 0.139 | increase in dead-cell fraction (THZ1; 0.0001 µM): -0.0025 | increase in dead-cell fraction (THZ1; 0.0003162 µM): 0.0107 | increase in dead-cell fraction (THZ1; 0.001 µM): -0.0054 | increase in dead-cell fraction (THZ1; 0.003162 µM): 0.0295 | increase in dead-cell fraction (THZ1; 0.01 µM): 0.0559 | increase in dead-cell fraction (THZ1; 0.03162 µM): 0.216 | increase in dead-cell fraction (THZ1; 0.1 µM): 0.224 | increase in dead-cell fraction (THZ1; 0.3162 µM): 0.154 | increase in dead-cell fraction (THZ1; 1 µM): 0.183 | increase in dead-cell fraction (Flavopiridol [5]; 0.0001 µM): 0.0138 | increase in dead-cell fraction (Flavopiridol [5]; 0.0003162 µM): 0.0542 | increase in dead-cell fraction (Flavopiridol [5]; 0.001 µM): 0.0183 | increase in dead-cell fraction (Flavopiridol [5]; 0.003162 µM): -0.0158 | increase in dead-cell fraction (Flavopiridol [5]; 0.01 µM): 0.0161 | increase in dead-cell fraction (Flavopiridol [5]; 0.03162 µM): 0.0472 | increase in dead-cell fraction (Flavopiridol [5]; 0.1 µM): 0.021 | increase in dead-cell fraction (Flavopiridol [5]; 0.3162 µM): -0.002 | increase in dead-cell fraction (Flavopiridol [5]; 1 µM): 0.117 | GR value (Neratinib/HKI272 [6]; 0.0003162 µM): 0.996 GR | GR value (Neratinib/HKI272 [6]; 0.001 µM): 1.05 GR | GR value (Neratinib/HKI272 [6]; 0.003162 µM): 0.979 GR | GR value (Neratinib/HKI272 [6]; 0.01 µM): 0.808 GR | GR value (Neratinib/HKI272 [6]; 0.03162 µM): 0.839 GR | GR value (Neratinib/HKI272 [6]; 0.1 µM): 0.681 GR | GR value (Neratinib/HKI272 [6]; 0.3162 µM): 0.595 GR | GR value (Neratinib/HKI272 [6]; 1 µM): 0.476 GR | GR value (Neratinib/HKI272 [6]; 3.162 µM): 0.267 GR | GR value (Flavopiridol [7]; 0.0001 µM): 1 GR | GR value (Flavopiridol [7]; 0.0003162 µM): 0.883 GR | GR value (Flavopiridol [7]; 0.001 µM): 0.776 GR | GR value (Flavopiridol [7]; 0.003162 µM): 0.933 GR | GR value (Flavopiridol [7]; 0.01 µM): 0.845 GR | GR value (Flavopiridol [7]; 0.03162 µM): 0.58 GR | GR value (Flavopiridol [7]; 0.1 µM): 0.632 GR | GR value (Flavopiridol [7]; 0.3162 µM): 0.458 GR | GR value (Flavopiridol [7]; 1 µM): 0.132 GR
